Source: patent US12139492B2 (Endotarget Inc., priority 2021, dated 2024)
Where two headings read alike, the source gives them in different places.

Tests used:
Assay type in all cases: cell-based
JeKo-1 cells = test: Antiproliferative effect, MTS cell viability assay, JeKo-1 cells; details: JeKo-1 mantle cell lymphoma cells, read-out: IC50 (anti-proliferation) JeKO-1 cells
Summary of the method: (§1)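 Mino and JeKo-1 mantle B-cell lymphoma lines were exposed to compound at 0, 0.001, 0.01, 0.1, 1 and 10 μM for 72 h. Viability was read by MTS reduction to formazan, measured as absorbance at 490 nm.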

BTK = BTK (Homo sapiens, UniProt Q06187); test: BTK degradation, DC50 and Dmax of Table 1 (cell line not given); parameters: endogenous in cells; details: for DC50: concentration giving 50% reduction of BTK expression level
BTK, sequence (Q06187 whole entry): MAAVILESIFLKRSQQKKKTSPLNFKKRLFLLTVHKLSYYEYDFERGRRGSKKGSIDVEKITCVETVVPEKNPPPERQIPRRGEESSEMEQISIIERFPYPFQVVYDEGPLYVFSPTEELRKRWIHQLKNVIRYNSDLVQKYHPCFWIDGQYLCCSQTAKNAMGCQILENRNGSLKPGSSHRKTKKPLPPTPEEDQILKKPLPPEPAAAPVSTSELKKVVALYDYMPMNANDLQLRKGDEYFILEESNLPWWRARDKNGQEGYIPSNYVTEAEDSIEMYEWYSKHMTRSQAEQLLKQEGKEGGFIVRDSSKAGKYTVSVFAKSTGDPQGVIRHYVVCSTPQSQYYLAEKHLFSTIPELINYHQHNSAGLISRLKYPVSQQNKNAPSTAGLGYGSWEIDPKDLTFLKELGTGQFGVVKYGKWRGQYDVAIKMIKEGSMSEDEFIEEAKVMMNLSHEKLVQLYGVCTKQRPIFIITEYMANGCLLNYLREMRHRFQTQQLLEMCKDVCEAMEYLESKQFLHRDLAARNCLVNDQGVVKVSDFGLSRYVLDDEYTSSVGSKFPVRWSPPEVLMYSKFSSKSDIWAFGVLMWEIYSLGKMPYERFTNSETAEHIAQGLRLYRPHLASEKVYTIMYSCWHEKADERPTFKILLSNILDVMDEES

Mino cells = test: Antiproliferative effect, MTS cell viability assay, Mino cells; details: Mino mantle cell lymphoma cells, read-out: IC50 (anti-proliferation) Mino cells
Summary of the method: as §1

With “3-(5-(4-(2-(2-(3-(4-amino-3-(4- phenoxyphenyl)-1H-pyrazolo[3,4- d]pyrimidin-1-yl)piperidin-1- yl)ethoxy)ethyl)piperidin-1-yl)-1- oxoisindolin-2-yl)piperidine-2,6- dione [Compound 24]” the IC50 (JeKo-1 cells) was 1000 to 10000 nM, the “Dmax (BTK degradation)” value (BTK) was “A (A >90%)” and the DC50 (BTK) was 10 to 50 nM. For the same molecule, the IC50 (Mino cells) was 1000 to 10000 nM.

`Nc1ncnc2c1c(-c1ccc(Oc3ccccc3)cc1)nn2C1CCCN(CCOCCOCCN2CCC(c3ccc4c(c3)C(=O)N(C3CCC(=O)NC3=O)C4=O)CC2)C1` (stereo not drawn) [Compound 13, 5-(1-(2-(2-(2-(3-(4-amino-3-(4-phenoxyphenyl)-1H-pyrazolo[3,4-d]pyrimidin-1-yl)piperidin-1-yl)ethoxy)ethoxy)ethyl)piperidin-4-yl)-2-(2,6-dioxopiperidin-3-yl)isoindoline-1,3-dione] was tested, and the IC50 (JeKo-1 cells; Homo sapiens) was 1000 to 10000 nM, the Dmax (BTK) was greater than 75% and the DC50 (BTK) was 10 to 50 nM. For the same molecule, the IC50 (Mino cells; Homo sapiens, MINO) was 1000 to 10000 nM.

Work on `Nc1ncnc2c1c(-c1ccc(Oc3ccccc3)cc1)nn2C1CCCN(CCOCCC2CCN(c3ccc4c(c3)C(=O)N(C3CCC(=O)NC3=O)C4=O)CC2)C1` (stereo not drawn) [Compound 23, 5-(4-(2-(2-(3-(4-amino-3-(4-phenoxyphenyl)-1H-pyrazolo[3,4-d]pyrimidin-1-yl)piperidin-1-yl)ethoxy)ethyl)piperidin-1-yl)-2-(2,6-dioxopiperidin-3-yl)isoindoline-1,3-dione] yielded an IC50 (JeKo-1 cells; Homo sapiens) of 1000 to 10000 nM, a Dmax (BTK) greater than 75% and a DC50 (BTK) greater than 50 nM. For the same molecule, the IC50 (Mino cells; Homo sapiens, MINO) was 1000 to 10000 nM.

In the case of `Nc1ncnc2c1c(-c1ccc(Oc3ccccc3)cc1)nn2C1CCN(CC2CCN(C(=O)N3CCC(CCN4CCN(c5ccc6c(c5)C(=O)N(C5CCC(=O)NC5=O)C6=O)CC4)CC3)CC2)CC1` (stereo not drawn) [Compound 43, 5-(4-(2-(1-(4-((4-(4-amino-3-(4-phenoxyphenyl)-1H-pyrazolo[3,4-d]pyrimidin-1-yl)piperidin-1-yl)methyl)piperidine-1-carbonyl)piperidin-4-yl)ethyl)piperazin-1-yl)-2-(2,6-dioxopiperidin-3-yl)isoindoline-1,3-dione], the IC50 (JeKo-1 cells; Homo sapiens) is reported as 1000 to 10000 nM, the Dmax (BTK) is reported as greater than 90% and the IC50 (Mino cells; Homo sapiens, MINO) is reported as 1000 to 10000 nM.

`Nc1ncnc2c1c(-c1ccc(Oc3ccccc3)cc1)nn2[C@@H]1CCCN(C2CCN(C(=O)N3CCC(CN4CCC(c5ccc6c(c5)C(=O)N(C5CCC(=O)NC5=O)C6=O)CC4)CC3)CC2)C1` (stereo partly drawn) [Compound 173, 5-(1-((1-((R)-3-(4-amino-3-(4-phenoxyphenyl)-1H-pyrazolo[3,4-d]pyrimidin-1-yl)-[1,4′-bipiperidine]-1′-carbonyl)piperidin-4-yl)methyl)piperidin-4-yl)-2-(2,6-dioxopiperidin-3-yl)isoindoline-1,3-dione] showed an IC50 (JeKo-1 cells; Homo sapiens) of less than 1000 nM, a Dmax (BTK) greater than 90% and a DC50 (BTK) of 10 to 50 nM. For the same molecule, the IC50 (Mino cells; Homo sapiens, MINO) was 1000 to 10000 nM.

With `Nc1ncnc2c1c(-c1ccc(Oc3ccccc3)cc1)nn2C1CCN(C(=O)N2CCC(N3CCC(c4ccc5c(c4)CN(C4CCC(=O)NC4=O)C5=O)CC3)CC2)CC1` (stereo not drawn) [Compound 84, 3-(5-(1′-(4-(4-amino-3-(4-phenoxyphenyl)-1H-pyrazolo[3,4-d]pyrimidin-1-yl)piperidine-1-carbonyl)-[1,4′-bipiperidin]-4-yl)-1-oxoisoindolin-2-yl)piperidine-2,6-dione] the IC50 (JeKo-1 cells; Homo sapiens) was greater than 10000 nM, the Dmax (BTK) was greater than 75% and the DC50 (BTK) was greater than 50 nM. It also gave an IC50 (Mino cells; Homo sapiens, MINO) greater than 10000 nM.

`Nc1ncnc2c1c(-c1ccc(Oc3ccccc3)cc1)nn2C1CCN(CC2CCN(C(=O)N3CCC(CN4CCN(c5ccc6c(c5)CN(C5CCC(=O)NC5=O)C6=O)CC4)CC3)CC2)CC1` (stereo not drawn) [Compound 42, 3-(5-(4-((1-(4-((4-(4-amino-3-(4-phenoxyphenyl)-1H-pyrazolo[3,4-d]pyrimidin-1-yl)piperidin-1-yl)methyl)piperidine-1-carbonyl)piperidin-4-yl)methyl)piperazin-1-yl)-1-oxoisoindolin-2-yl)piperidine-2,6 dione] showed an IC50 (JeKo-1 cells; Homo sapiens) of less than 1000 nM, a Dmax (BTK) greater than 90% and a DC50 (BTK) of 10 to 50 nM. It also gave an IC50 (Mino cells; Homo sapiens, MINO) of less than 1000 nM.

Work on `Nc1ncnc2c1c(-c1ccc(Oc3ccccc3)cc1)nn2C1CCCN(CCOCCOCCC2CCN(c3ccc4c(c3)CN(C3CCC(=O)NC3=O)C4=O)CC2)C1` (stereo not drawn) [Compound 22, 3-(5-(4-(2-(2-(2-(3-(4-amino-3-(4-phenoxyphenyl)-1H-pyrazolo[3,4-d]pyrimidin-1-yl)piperidin-1-yl)ethoxy)ethoxy)ethyl)piperidin-1-yl)-1-oxoisoindolin-2-yl)piperidine-2,6-dione] yielded an IC50 (JeKo-1 cells; Homo sapiens) of 1000 to 10000 nM, a Dmax (BTK) greater than 90% and a DC50 (BTK) of less than 10 nM. The IC50 (Mino cells; Homo sapiens, MINO) was less than 1000 nM.

Molecule `Nc1ncnc2c1c(-c1ccc(Oc3ccccc3)cc1)nn2[C@@H]1CCCN(CC2CCN(CCN3CCC(c4ccc5c(c4)CN(C4CCC(=O)NC4=O)C5=O)CC3)CC2)C1` (stereo partly drawn) [Compound 136, 3-(5-(1-(2-(4-(((R)-3-(4-amino-3-(4-phenoxyphenyl)-1H-pyrazolo[3,4-d]pyrimidin-1-yl)piperidin-1-yl)methyl)piperidin-1-yl)ethyl)piperidin-4-yl)-1-oxoisoindolin-2-yl)piperidine-2,6-dione] has an IC50 (JeKo-1 cells; Homo sapiens) of 1000 to 10000 nM, a Dmax (BTK) greater than 75% and a DC50 (BTK) of less than 10 nM. It also gave an IC50 (Mino cells; Homo sapiens, MINO) of less than 1000 nM.

For `Nc1ncnc2c1c(-c1ccc(Oc3ccccc3)cc1)nn2[C@@H]1CCCN(C(=O)N2CCN(CCCN3CCN(c4ccc5c(c4)CN(C4CCC(=O)NC4=O)C5=O)CC3)CC2)C1` (stereo partly drawn) [Compound 108, 3-(5-(4-(3-(4-((R)-3-(4-amino-3-(4-phenoxyphenyl)-1H-pyrazolo[3,4-d]pyrimidin-1-yl)piperidine-1-carbonyl)piperazin-1-yl)propyl)piperazin-1-yl)-1-oxoisoindolin-2-yl)piperidine-2,6-dione], the IC50 (JeKo-1 cells; Homo sapiens) was 1000 to 10000 nM, the Dmax (BTK) was greater than 75% and the DC50 (BTK) was greater than 50 nM. It also gave an IC50 (Mino cells; Homo sapiens, MINO) of 1000 to 10000 nM.

With `Nc1ncnc2c1c(-c1ccc(Oc3ccccc3)cc1)nn2[C@@H]1CCCN(C2CCN(C(=O)N3CCN(CC4CCN(c5ccc6c(c5)C(=O)N(C5CCC(=O)NC5=O)C6=O)CC4)CC3)CC2)C1` (stereo partly drawn) [Compound 171, 5-(4-((4-((R)-3-(4-amino-3-(4-phenoxyphenyl)-1H-pyrazolo[3,4-d]pyrimidin-1-yl)-[1,4′-bipiperidine]-1′-carbonyl)piperazin-1-yl)methyl)piperidin-1-yl)-2-(2,6-dioxopiperidin-3-yl)isoindoline-1,3-dione] the IC50 (JeKo-1 cells; Homo sapiens) was 1000 to 10000 nM, the Dmax (BTK) was greater than 90% and the DC50 (BTK) was 10 to 50 nM. The IC50 (Mino cells; Homo sapiens, MINO) was 1000 to 10000 nM.

`Nc1ncnc2c1c(-c1ccc(Oc3ccccc3)cc1)nn2C1CCN(CCOCCN2CCC(c3ccc4c(c3)C(=O)N(C3CCC(=O)NC3=O)C4=O)CC2)CC1` (stereo not drawn) [Compound 11, 5-(1-(2-(2-(4-(4-amino-3-(4-phenoxyphenyl)-1H-pyrazolo[3,4-d]pyrimidin-1-yl)piperidin-1-yl)ethoxy)ethyl)piperidin-4-yl)-2-(2,6-dioxopiperidin-3-yl)isoindoline-1,3-dione] gave an IC50 (JeKo-1 cells; Homo sapiens) of 1000 to 10000 nM, a Dmax (BTK) greater than 90% and a DC50 (BTK) of 10 to 50 nM. It also gave an IC50 (Mino cells; Homo sapiens, MINO) of 1000 to 10000 nM.

`Nc1ncnc2c1c(-c1ccc(Oc3ccccc3)cc1)nn2C1CCN(C(=O)N2CCN(CCCN3CCN(c4ccc5c(c4)CN(C4CCC(=O)NC4=O)C5=O)CC3)CC2)CC1` (stereo not drawn) [Compound 120, 3-(5-(4-(3-(4-(4-(4-amino-3-(4-phenoxyphenyl)-1H-pyrazolo[3,4-d]pyrimidin-1-yl)piperidine-1-carbonyl)piperazin-1-yl)propyl)piperazin-1-yl)-1-oxoisoindolin-2-yl)piperidine-2,6-dione] was tested, and the IC50 (JeKo-1 cells; Homo sapiens) was greater than 10000 nM, the Dmax (BTK) was greater than 75% and the DC50 (BTK) was greater than 50 nM. The IC50 (Mino cells; Homo sapiens, MINO) was greater than 10000 nM.
